Data published in patent US20260356819A1, “OXOISOINDOLINYL-SUBSTITUTED […] DERIVATIVE AND USE THEREOF” (GLUETACS THERAPEUTICS (SHANGHAI) CO., LTD., priority 2023, published 2026).

Key:
Assay type in all cases: cell-based
Conditions in all cases: compounds at 50 nM and 500 nM
CK1α = target: T1, CK1α (Homo sapiens, UniProt P48729+Q96SW2); assay: Western blot degradation of CK1α in hPBMCs (24 h)
T1 construct: The supernatant was aspirated as the extracted total cell protein; endogenous in cells; host or cells: human peripheral blood mononuclear cells (hPBMCs)
T1 sequence (P48729 whole entry): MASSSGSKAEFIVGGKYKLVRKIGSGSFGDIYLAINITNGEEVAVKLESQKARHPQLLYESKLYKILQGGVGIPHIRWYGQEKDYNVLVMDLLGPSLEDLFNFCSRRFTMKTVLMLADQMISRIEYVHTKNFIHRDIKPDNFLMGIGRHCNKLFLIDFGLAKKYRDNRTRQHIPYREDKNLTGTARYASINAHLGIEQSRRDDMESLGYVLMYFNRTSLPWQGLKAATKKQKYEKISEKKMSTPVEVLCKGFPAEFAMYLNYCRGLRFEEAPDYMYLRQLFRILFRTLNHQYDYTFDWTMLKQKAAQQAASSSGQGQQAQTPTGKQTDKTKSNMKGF
T1 sequence (Q96SW2 whole entry): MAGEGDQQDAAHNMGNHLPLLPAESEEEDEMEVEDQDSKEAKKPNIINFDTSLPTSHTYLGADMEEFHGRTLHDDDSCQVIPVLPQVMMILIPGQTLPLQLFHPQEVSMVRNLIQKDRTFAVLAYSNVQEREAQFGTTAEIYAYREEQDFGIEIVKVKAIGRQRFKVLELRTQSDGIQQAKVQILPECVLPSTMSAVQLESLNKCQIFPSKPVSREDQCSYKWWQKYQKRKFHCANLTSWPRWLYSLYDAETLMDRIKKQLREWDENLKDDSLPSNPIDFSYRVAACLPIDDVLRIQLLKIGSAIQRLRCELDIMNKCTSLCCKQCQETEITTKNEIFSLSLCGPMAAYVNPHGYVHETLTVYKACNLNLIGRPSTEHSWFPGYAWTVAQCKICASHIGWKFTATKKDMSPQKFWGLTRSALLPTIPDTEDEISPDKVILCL
T1 sequence (Q16531 whole entry partner): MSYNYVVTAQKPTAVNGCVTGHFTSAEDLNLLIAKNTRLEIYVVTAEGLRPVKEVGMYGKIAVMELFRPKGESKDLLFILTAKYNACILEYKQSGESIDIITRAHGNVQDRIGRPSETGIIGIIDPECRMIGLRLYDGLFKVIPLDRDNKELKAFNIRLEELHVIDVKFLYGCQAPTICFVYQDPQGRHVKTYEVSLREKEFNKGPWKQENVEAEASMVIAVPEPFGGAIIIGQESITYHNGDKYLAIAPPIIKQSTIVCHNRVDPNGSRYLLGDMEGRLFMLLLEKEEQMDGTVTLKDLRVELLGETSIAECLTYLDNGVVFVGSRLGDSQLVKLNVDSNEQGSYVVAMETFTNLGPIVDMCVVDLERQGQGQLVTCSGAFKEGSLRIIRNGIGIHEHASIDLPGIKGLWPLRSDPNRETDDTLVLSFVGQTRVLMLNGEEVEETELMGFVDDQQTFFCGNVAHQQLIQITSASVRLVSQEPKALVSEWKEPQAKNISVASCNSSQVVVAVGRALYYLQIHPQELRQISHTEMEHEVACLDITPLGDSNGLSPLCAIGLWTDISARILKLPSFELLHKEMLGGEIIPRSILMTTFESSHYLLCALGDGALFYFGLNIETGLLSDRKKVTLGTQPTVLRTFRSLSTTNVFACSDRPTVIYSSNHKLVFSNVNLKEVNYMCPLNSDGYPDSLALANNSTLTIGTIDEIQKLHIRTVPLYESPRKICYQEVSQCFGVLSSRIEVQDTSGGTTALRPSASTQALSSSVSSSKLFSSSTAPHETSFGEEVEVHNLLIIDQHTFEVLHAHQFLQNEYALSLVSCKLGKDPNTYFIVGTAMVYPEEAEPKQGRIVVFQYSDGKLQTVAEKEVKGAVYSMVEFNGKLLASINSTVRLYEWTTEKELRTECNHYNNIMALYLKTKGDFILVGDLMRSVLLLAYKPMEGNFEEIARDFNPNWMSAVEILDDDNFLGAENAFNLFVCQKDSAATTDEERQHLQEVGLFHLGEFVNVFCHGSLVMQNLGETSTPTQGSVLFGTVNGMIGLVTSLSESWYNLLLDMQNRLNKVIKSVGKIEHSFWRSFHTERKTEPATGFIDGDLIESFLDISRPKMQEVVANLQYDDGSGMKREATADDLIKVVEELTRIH
Outline: (§1)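 Compounds were tested at 50 nM and 500 nM on hPBMCs (1×10^6 cells/mL) for 24 h, alongside DMSO. Proteins were detected by Western blot after denaturation at 95 °C; remaining protein computed from normalised band grayscale.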

IKZF1 = target: T2, IKZF1 (Homo sapiens, UniProt Q13422+Q96SW2); assay: Western blot degradation of IKZF1 in hPBMCs (24 h)
T2 construct: The supernatant was aspirated as the extracted total cell protein; endogenous in cells; host or cells: human peripheral blood mononuclear cells (hPBMCs)
T2 sequence (Q13422 whole entry): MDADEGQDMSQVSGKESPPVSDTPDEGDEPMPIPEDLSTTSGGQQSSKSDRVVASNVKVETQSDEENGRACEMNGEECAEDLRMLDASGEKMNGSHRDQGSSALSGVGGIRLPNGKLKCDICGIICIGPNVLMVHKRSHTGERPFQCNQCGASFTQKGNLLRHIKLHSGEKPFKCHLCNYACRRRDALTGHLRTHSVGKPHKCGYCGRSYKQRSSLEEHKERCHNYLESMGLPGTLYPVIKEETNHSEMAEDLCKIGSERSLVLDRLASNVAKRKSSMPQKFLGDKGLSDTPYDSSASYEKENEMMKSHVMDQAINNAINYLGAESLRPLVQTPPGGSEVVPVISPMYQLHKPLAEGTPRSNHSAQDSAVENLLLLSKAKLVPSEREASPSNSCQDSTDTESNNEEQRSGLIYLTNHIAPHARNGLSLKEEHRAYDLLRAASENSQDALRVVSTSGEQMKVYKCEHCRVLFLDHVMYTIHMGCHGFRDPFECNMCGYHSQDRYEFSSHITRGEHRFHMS
T2 sequence (Q96SW2 whole entry): as the sequence (Q96SW2 whole entry) above
T2 sequence (Q16531 whole entry partner): as the sequence (Q16531 whole entry partner) above
Outline: as §1

WEE1 = target: T3, WEE1 (Homo sapiens, UniProt P30291+Q96SW2); assay: Western blot degradation of WEE1 in hPBMCs (24 h)
T3 construct: The supernatant was aspirated as the extracted total cell protein; endogenous in cells; host or cells: human peripheral blood mononuclear cells (hPBMCs)
Outline: as §1

IKZF2 = target: T4, IKZF2 (Homo sapiens, UniProt Q96SW2+Q9UKS7); assay: Western blot degradation of IKZF2 in hPBMCs (24 h)
T4 construct: The supernatant was aspirated as the extracted total cell protein; endogenous in cells; host or cells: human peripheral blood mononuclear cells (hPBMCs)
T4 sequence (Q9UKS7 whole entry): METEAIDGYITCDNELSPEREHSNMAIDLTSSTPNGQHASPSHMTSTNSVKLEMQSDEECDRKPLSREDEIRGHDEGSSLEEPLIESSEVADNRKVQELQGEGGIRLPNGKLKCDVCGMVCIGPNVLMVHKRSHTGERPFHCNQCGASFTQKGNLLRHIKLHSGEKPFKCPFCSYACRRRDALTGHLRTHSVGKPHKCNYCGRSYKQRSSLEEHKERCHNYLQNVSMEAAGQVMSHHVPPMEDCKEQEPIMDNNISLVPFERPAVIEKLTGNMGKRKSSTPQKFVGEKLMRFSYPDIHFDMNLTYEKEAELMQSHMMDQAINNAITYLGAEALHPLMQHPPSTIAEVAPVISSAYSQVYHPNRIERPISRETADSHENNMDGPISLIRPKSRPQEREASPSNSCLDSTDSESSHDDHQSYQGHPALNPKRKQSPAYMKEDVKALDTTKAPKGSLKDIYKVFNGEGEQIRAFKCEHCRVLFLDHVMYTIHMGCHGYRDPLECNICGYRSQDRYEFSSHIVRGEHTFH
T4 sequence (Q96SW2 whole entry): as the sequence (Q96SW2 whole entry) above
T4 sequence (Q16531 whole entry partner): as the sequence (Q16531 whole entry partner) above
Outline: as §1

GSPT1 = target: T5, GSPT1 (Homo sapiens, UniProt P15170+Q96SW2); assay: Western blot degradation of GSPT1 in hPBMCs (24 h)
T5 construct: The supernatant was aspirated as the extracted total cell protein; endogenous in cells; host or cells: human peripheral blood mononuclear cells (hPBMCs)
T5 sequence (P15170 whole entry): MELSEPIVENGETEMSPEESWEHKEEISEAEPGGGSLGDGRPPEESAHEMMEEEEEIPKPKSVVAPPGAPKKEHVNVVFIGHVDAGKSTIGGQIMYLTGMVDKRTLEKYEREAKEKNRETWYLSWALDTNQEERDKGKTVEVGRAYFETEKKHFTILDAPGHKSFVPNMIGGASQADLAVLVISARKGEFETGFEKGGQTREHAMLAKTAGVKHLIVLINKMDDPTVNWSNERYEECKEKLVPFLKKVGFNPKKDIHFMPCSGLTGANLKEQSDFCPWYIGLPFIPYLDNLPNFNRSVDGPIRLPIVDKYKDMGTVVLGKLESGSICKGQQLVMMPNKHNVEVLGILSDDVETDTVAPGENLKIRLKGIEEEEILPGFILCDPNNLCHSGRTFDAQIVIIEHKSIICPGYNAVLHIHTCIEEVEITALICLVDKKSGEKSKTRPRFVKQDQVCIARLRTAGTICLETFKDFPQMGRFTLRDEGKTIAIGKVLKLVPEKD
T5 sequence (Q96SW2 whole entry): as the sequence (Q96SW2 whole entry) above
T5 sequence (Q16531 whole entry partner): as the sequence (Q16531 whole entry partner) above
Outline: as §1

IKZF3 = target: T6, IKZF3 (Homo sapiens, UniProt Q96SW2+Q9UKT9); assay: Western blot degradation of IKZF3 in hPBMCs (24 h)
T6 construct: The supernatant was aspirated as the extracted total cell protein; endogenous in cells; host or cells: human peripheral blood mononuclear cells (hPBMCs)
T6 sequence (Q9UKT9 whole entry): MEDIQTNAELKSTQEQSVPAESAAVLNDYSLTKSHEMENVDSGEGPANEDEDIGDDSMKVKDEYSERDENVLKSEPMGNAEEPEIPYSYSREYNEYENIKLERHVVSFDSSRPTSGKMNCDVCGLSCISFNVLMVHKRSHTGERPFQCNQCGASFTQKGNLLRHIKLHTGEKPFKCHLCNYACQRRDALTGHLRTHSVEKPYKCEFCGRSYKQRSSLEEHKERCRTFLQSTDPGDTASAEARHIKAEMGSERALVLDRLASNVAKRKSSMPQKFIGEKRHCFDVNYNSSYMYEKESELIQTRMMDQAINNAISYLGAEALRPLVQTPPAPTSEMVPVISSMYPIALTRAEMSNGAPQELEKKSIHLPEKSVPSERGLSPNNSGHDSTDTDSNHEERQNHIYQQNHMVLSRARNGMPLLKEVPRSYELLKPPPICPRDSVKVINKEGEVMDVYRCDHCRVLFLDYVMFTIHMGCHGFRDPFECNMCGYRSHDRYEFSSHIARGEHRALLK
T6 sequence (Q96SW2 whole entry): as the sequence (Q96SW2 whole entry) above
T6 sequence (Q16531 whole entry partner): as the sequence (Q16531 whole entry partner) above
Outline: as §1

## O=C1CCN(N2Cc3cc(CN4CCN(c5cc(F)ccc5F)CC4)ccc3C2=O)C(=O)N1 [GT-06779, 1-(5-((4-(2,5-difluorophenyl)piperazin-1-yl)methyl)-1-oxoisoindolin-2-yl)dihydropyrimidine-2,4(1H,3H)-dione]
CK1α
  CK1α substrate protein remaining %: A (0% ≤ substrate protein remaining % ≤80%)
IKZF1
  IKZF1 substrate protein remaining %: B (80%< substrate protein remaining % ≤100%)
WEE1
  WEE1 substrate protein remaining %: B (80%< substrate protein remaining % ≤100%)
IKZF2
  IKZF2 substrate protein remaining %: B (80%< substrate protein remaining % ≤100%)
GSPT1
  GSPT1 substrate protein remaining %: B (80%< substrate protein remaining % ≤100%)
IKZF3
  IKZF3 substrate protein remaining %: B (80%< substrate protein remaining % ≤100%)

## O=C1CCN(N2Cc3cc(CN4CCN(c5c(F)cccc5F)CC4)ccc3C2=O)C(=O)N1 [GT-06780, 1-(5-((4-(2,6-difluorophenyl)piperazin-1-yl)methyl)-1-oxoisoindolin-2-yl)dihydropyrimidine-2,4(1H,3H)-dione]
CK1α
  CK1α substrate protein remaining %: A (0% ≤ substrate protein remaining % ≤80%)
IKZF1
  IKZF1 substrate protein remaining %: B (80%< substrate protein remaining % ≤100%)
WEE1
  WEE1 substrate protein remaining %: B (80%< substrate protein remaining % ≤100%)
IKZF2
  IKZF2 substrate protein remaining %: B (80%< substrate protein remaining % ≤100%)
GSPT1
  GSPT1 substrate protein remaining %: B (80%< substrate protein remaining % ≤100%)
IKZF3
  IKZF3 substrate protein remaining %: B (80%< substrate protein remaining % ≤100%)

## O=C1CCN(N2Cc3cc(CN4CCN(c5ccc(F)c(F)c5)CC4)ccc3C2=O)C(=O)N1 [GT-06781, 1-(5-((4-(3,4-difluorophenyl)piperazin-1-yl)methyl)-1-oxoisoindolin-2-yl)dihydropyrimidine-2,4(1H,3H)-dione]
CK1α
  CK1α substrate protein remaining %: A (0% ≤ substrate protein remaining % ≤80%)
IKZF1
  IKZF1 substrate protein remaining %: B (80%< substrate protein remaining % ≤100%)
WEE1
  WEE1 substrate protein remaining %: B (80%< substrate protein remaining % ≤100%)
IKZF2
  IKZF2 substrate protein remaining %: B (80%< substrate protein remaining % ≤100%)
GSPT1
  GSPT1 substrate protein remaining %: A (0% ≤ substrate protein remaining % ≤80%)
IKZF3
  IKZF3 substrate protein remaining %: B (80%< substrate protein remaining % ≤100%)

## O=C1CCN(N2Cc3cc(CN4CCN(c5cc(F)cc(F)c5)CC4)ccc3C2=O)C(=O)N1 [GT-06782, 1-(5-((4-(3,5-difluorophenyl)piperazin-1-yl)methyl)-1-oxoisoindolin-2-yl)dihydropyrimidine-2,4(1H,3H)-dione]
CK1α
  CK1α substrate protein remaining %: A (0% ≤ substrate protein remaining % ≤80%)
IKZF1
  IKZF1 substrate protein remaining %: B (80%< substrate protein remaining % ≤100%)
WEE1
  WEE1 substrate protein remaining %: B (80%< substrate protein remaining % ≤100%)
IKZF2
  IKZF2 substrate protein remaining %: B (80%< substrate protein remaining % ≤100%)
GSPT1
  GSPT1 substrate protein remaining %: A (0% ≤ substrate protein remaining % ≤80%)
IKZF3
  IKZF3 substrate protein remaining %: B (80%< substrate protein remaining % ≤100%)

## O=C1CCN(N2C(=O)c3ccc(CN4CCN(c5ccc(Cl)cc5)CC4)cc3C2=O)C(=O)N1 [GT-06783, 5-((4-(4-chlorophenyl)piperazin-1-yl)methyl)-2-(2,4-dioxotetrahydropyrimidin-1(2H)-yl)isoindoline-1,3-dione]
CK1α
  CK1α substrate protein remaining %: B (80%< substrate protein remaining % ≤100%)
IKZF1
  IKZF1 substrate protein remaining %: B (80%< substrate protein remaining % ≤100%)
WEE1
  WEE1 substrate protein remaining %: B (80%< substrate protein remaining % ≤100%)
IKZF2
  IKZF2 substrate protein remaining %: B (80%< substrate protein remaining % ≤100%)
GSPT1
  GSPT1 substrate protein remaining %: B (80%< substrate protein remaining % ≤100%)
IKZF3
  IKZF3 substrate protein remaining %: A (0% ≤ substrate protein remaining % ≤80%)

## O=C1CCN(N2C(=O)c3ccc(CN4CCN(c5ccc(Br)cc5)CC4)cc3C2=O)C(=O)N1 [GT-06784, 5-((4-(4-bromophenyl)piperazin-1-yl)methyl)-2-(2,4-dioxotetrahydropyrimidin-1(2H)-yl)isoindoline-1,3-dione]
CK1α
  CK1α substrate protein remaining %: A (0% ≤ substrate protein remaining % ≤80%)
IKZF1
  IKZF1 substrate protein remaining %: B (80%< substrate protein remaining % ≤100%)
WEE1
  WEE1 substrate protein remaining %: B (80%< substrate protein remaining % ≤100%)
IKZF2
  IKZF2 substrate protein remaining %: B (80%< substrate protein remaining % ≤100%)
GSPT1
  GSPT1 substrate protein remaining %: B (80%< substrate protein remaining % ≤100%)
IKZF3
  IKZF3 substrate protein remaining %: B (80%< substrate protein remaining % ≤100%)

## O=C1CCN(N2C(=O)c3ccc(CN4CCN(c5cccc(F)c5F)CC4)cc3C2=O)C(=O)N1 [GT-06793, 5-((4-(2,3-difluorophenyl)piperazin-1-yl)methyl)-2-(2,4-dioxotetrahydropyrimidin-1(2H)-yl)isoindoline-1,3-dione]
CK1α
  CK1α substrate protein remaining %: B (80%< substrate protein remaining % ≤100%)
IKZF1
  IKZF1 substrate protein remaining %: B (80%< substrate protein remaining % ≤100%)
WEE1
  WEE1 substrate protein remaining %: B (80%< substrate protein remaining % ≤100%)
IKZF2
  IKZF2 substrate protein remaining %: A (0% ≤ substrate protein remaining % ≤80%)
GSPT1
  GSPT1 substrate protein remaining %: B (80%< substrate protein remaining % ≤100%)
IKZF3
  IKZF3 substrate protein remaining %: B (80%< substrate protein remaining % ≤100%)

## O=C1CCN(N2C(=O)c3ccc(CN4CCN(c5c(F)cccc5F)CC4)cc3C2=O)C(=O)N1 [GT-06796, 5-((4-(2,6-difluorophenyl)piperazin-1-yl)methyl)-2-(2,4-dioxotetrahydropyrimidin-1(2H)-yl)isoindoline-1,3-dione]
CK1α
  CK1α substrate protein remaining %: B (80%< substrate protein remaining % ≤100%)
IKZF1
  IKZF1 substrate protein remaining %: B (80%< substrate protein remaining % ≤100%)
WEE1
  WEE1 substrate protein remaining %: A (0% ≤ substrate protein remaining % ≤80%)
IKZF2
  IKZF2 substrate protein remaining %: B (80%< substrate protein remaining % ≤100%)
GSPT1
  GSPT1 substrate protein remaining %: B (80%< substrate protein remaining % ≤100%)
IKZF3
  IKZF3 substrate protein remaining %: B (80%< substrate protein remaining % ≤100%)

## O=C1CCN(N2C(=O)c3ccc(CN4CCN(c5ccc(F)c(F)c5)CC4)cc3C2=O)C(=O)N1 [GT-06797, 5-((4-(3,4-difluorophenyl)piperazin-1-yl)methyl)-2-(2,4-dioxotetrahydropyrimidin-1(2H)-yl)isoindoline-1,3-dione]
CK1α
  CK1α substrate protein remaining %: B (80%< substrate protein remaining % ≤100%)
IKZF1
  IKZF1 substrate protein remaining %: B (80%< substrate protein remaining % ≤100%)
WEE1
  WEE1 substrate protein remaining %: A (0% ≤ substrate protein remaining % ≤80%)
IKZF2
  IKZF2 substrate protein remaining %: B (80%< substrate protein remaining % ≤100%)
GSPT1
  GSPT1 substrate protein remaining %: B (80%< substrate protein remaining % ≤100%)
IKZF3
  IKZF3 substrate protein remaining %: B (80%< substrate protein remaining % ≤100%)

## O=C1CCN(N2C(=O)c3ccc(CN4CCC(c5ccccc5)CC4)cc3C2=O)C(=O)N1 [GT-06803, 2-(2,4-dioxotetrahydropyrimidin-1(2H)-yl)-5-((4-phenylpiperidin-1-yl)methyl)isoindoline-1,3-dione]
CK1α
  CK1α substrate protein remaining %: A (0% ≤ substrate protein remaining % ≤80%)
IKZF1
  IKZF1 substrate protein remaining %: B (80%< substrate protein remaining % ≤100%)
WEE1
  WEE1 substrate protein remaining %: B (80%< substrate protein remaining % ≤100%)
IKZF2
  IKZF2 substrate protein remaining %: B (80%< substrate protein remaining % ≤100%)
GSPT1
  GSPT1 substrate protein remaining %: B (80%< substrate protein remaining % ≤100%)
IKZF3
  IKZF3 substrate protein remaining %: B (80%< substrate protein remaining % ≤100%)

## O=C1CCN(N2C(=O)c3ccc(CN4CCC(c5cccc(Br)c5)CC4)cc3C2=O)C(=O)N1 [GT-06804, 5-((4-(3-bromophenyl)piperidin-1-yl)methyl)-2-(2,4-dioxotetrahydropyrimidin-1(2H)-yl)isoindoline-1,3-dione]
CK1α
  CK1α substrate protein remaining %: A (0% ≤ substrate protein remaining % ≤80%)
IKZF1
  IKZF1 substrate protein remaining %: B (80%< substrate protein remaining % ≤100%)
WEE1
  WEE1 substrate protein remaining %: B (80%< substrate protein remaining % ≤100%)
IKZF2
  IKZF2 substrate protein remaining %: B (80%< substrate protein remaining % ≤100%)
GSPT1
  GSPT1 substrate protein remaining %: B (80%< substrate protein remaining % ≤100%)
IKZF3
  IKZF3 substrate protein remaining %: B (80%< substrate protein remaining % ≤100%)
